Measured values published in article PMC12677653, “Inhibition of Tumor Lipogenesis and Growth by Peptide‐Based Targeting of SREBP Activation” (Advanced Science, 2025).

Experiments:
[1] = tested on: Insig1 S207/Insig2 S151 phosphorylation; assay: Immunoblot of Insig1 S207/Insig2 S151 phosphorylation, Huh7; assay type: cell-based, human; conditions: Huh7 cells, peptide 7.5 or 15 µM 1 h before IGF1 100 ng/mL
Protocol: Figure 1 The Insig1/2 loop 1 peptide binds to S90‐phosphorylated PCK1 and blocks PCK1‐mediated SREBP activation and tumor cell proliferation. Immunoblotting analyses were performed using the indicated antibodies; representative results from three independent experiments are shown (IP, immunoprecipitation; WB, western blot). a) Huh7 cells expressing various Insig1 (top) or Insig2 (bottom) truncation mutants were treated with or without IGF1 (100 ng mL^−1) for 1 h. b,c) Biolayer interferometry assays (Sartorius Octet) were employed to measure the binding affinity of Insig1/2 loop 1 peptide to GST‐PCK1 or GST‐PCK1 pS90 proteins. […] Statistical significance was determined by one‐way analysis of variance (ANOVA). g) Following pretreatment with Insig1/2 loop 1 peptide (15 µM) and IGF1 stimulation (100 ng mL^−1, 8 h), Huh7 cells were subjected to immunofluorescence analysis (scale bar: 10 µm). h) Quantitative PCR analysis of SREBP1 target gene GPAM in Huh7 cells pretreated with Insig1/2 loop 1 peptide (15 µM) and stimulated with IGF1 (100 ng mL^−1) for 10 h. […] Statistical significance was determined by one‐way analysis of variance (ANOVA). i) Quantitative PCR analysis of SREBP1 target gene FASN in Huh7 cells pretreated with Insig1/2 loop 1 peptide (15 µM) and stimulated with IGF1 (100 ng mL^−1) for 10 h. […]

[2] = tested on: Insig1 pS207/Insig2 pS151, SREBP1, Ki67; assay: IHC analysis of mouse tumors derived from Huh7 cells; assay type: in vivo, BALB/c athymic nude mice; conditions: peptide given as LNP@Insig1/2 loop 1 peptide 10 mg/kg iv, lenvatinib mesylate 2 mg/kg oral
Protocol: Representative micrographs are shown (scale bar: 20 µm). b,c) Cryosections of mouse tumor tissues were prepared for histological analysis. (b) Lipid accumulation was assessed by Oil Red O staining. Representative micrographs are shown (scale bar: 20 µm). (c) Apoptotic cells were detected by TUNEL assay. Representative micrographs are shown (scale bar: 20 µm). d,e) Quantitative analysis of (d) apoptotic areas (TUNEL‐positive regions) and (e) lipid droplet counts (Oil Red O‐positive particles) was performed. Data represent the mean ± SD (n = 4). Statistical significance was determined by one‐way analysis of variance (ANOVA). ** p < 0.01, **** p < 0.0001, ns, no significance.
As described previously,^[ [39] ^] IHC staining was performed using the Vectastain ABC kit (Vector Laboratories) according to the manufacturer's instructions. Sections of paraffin‐embedded xenograft tumors were stained with antibodies against Ki67, SREBP1, Insig1 pS207/Insig2 pS151, and nonspecific IgG was used as a negative control. Paraffin‐embedded human liver tumor sections were stained with antibodies against Ki67, SREBP1, Insig1 pS207/Insig2 pS151, with nonspecific IgG as a negative control. The tissue sections were quantitatively scored according to the percentage of positive cells and staining intensity. […] The intensity of staining was rated on a scale of 0 to 3: 0, negative; 1, weak; 2, moderate; and 3, strong. The study then combined the proportion and intensity scores to obtain a total score (range, 0–8).

For “RKKRRQRRRLYPCIDSHLGEPHKFKRE [Insig1/2 loop 1 peptide]”, the “Insig1 S207/Insig2 S151 phosphorylation” value [1] was “markedly inhibited”, the “Insig1 S207/Insig2 S151 phosphorylation in tumors” value [2] was “reduced” and the “Ki67 expression in tumors” value [2] was “reduced”. For the same sequence, the “SREBP1 expression and nuclear accumulation in tumors” value [2] was “reduced”.
